Data taken from US8921360B2, “Heterobicycle-substituted azolyl benzene fungicides” (priority 2009, dated 2014).

Assays:
[1] = system: Puccinia recondita f. sp. tritici; test: Test C: wheat leaf rust, spray the day after inoculation of wheat seedlings; format: in vivo; details: Puccinia recondita, 120 h, wheat seedlings inoculated, sprayed the following day, rated after 5 days, read-out: Percentage Disease Control Test C;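 note: Curative spray on infected wheat seedlings with visual rating 5 days later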
Description: General protocol for preparing test suspensions for Tests A-G: the test compounds were first dissolved in acetone in an amount equal to 11% of the final volume and then suspended at the desired concentration (in ppm) in acetone and purified water (50/50 mix by volume) containing 250 ppm of the surfactant Trem® 014 (polyhydric alcohol esters). The resulting test suspensions were then used in Tests A-G. Spraying a 200 ppm test suspension to the point of run-off on the test plants was the equivalent of a rate of 800 g/ha. Wheat seedlings were inoculated with a spore suspension of Puccinia recondita f. sp. tritici (the causal agent of wheat leaf rust) and incubated in a saturated atmosphere at 20° C. for 24 h. The following day, the test suspension was sprayed to the point of run-off on the wheat seedlings and then moved to a growth chamber at 20° C. for 5 days, after which time disease ratings were visually made. Results for Tests A-G are given in Table A. In the Table, a rating of 100 indicates 100% disease control and a rating of 0 indicates no disease control (relative to the controls). A dash (-) indicates no test results. All results are for 200 ppm except where followed by an “*”, which indicates 40 ppm.

Botrytis cinerea = test: Test F: tomato botrytis, preventive spray on tomato seedlings; format: in vivo; details: Botrytis cinerea, topical, 120 h, tomato seedlings sprayed to run-off, inoculated next day, rated after 48 h + 3 days, read-out: Percentage Disease Control Test F
Description: General protocol for preparing test suspensions for Tests A-G: the test compounds were first dissolved in acetone in an amount equal to 11% of the final volume and then suspended at the desired concentration (in ppm) in acetone and purified water (50/50 mix by volume) containing 250 ppm of the surfactant Trem® 014 (polyhydric alcohol esters). The resulting test suspensions were then used in Tests A-G. Spraying a 200 ppm test suspension to the point of run-off on the test plants was the equivalent of a rate of 800 g/ha. The test suspension was sprayed to the point of run-off on tomato seedlings. The following day the seedlings were inoculated with a spore suspension of Botrytis cinerea (the causal agent of tomato botrytis) and incubated in saturated atmosphere at 20° C. for 48 h, and then moved to a growth chamber at 27° C. for 3 additional days, after which time disease ratings were visually made. Results for Tests A-G are given in Table A. In the Table, a rating of 100 indicates 100% disease control and a rating of 0 indicates no disease control (relative to the controls). A dash (-) indicates no test results. All results are for 200 ppm except where followed by an “*”, which indicates 40 ppm.

Structure (SMILES) | pest or weed control at 200 ppm [1] [%] | pest or weed control at 200 ppm (Botrytis cinerea) [%] | melting point [°C]
CC(=O)NCc1cc(-c2ccn(-c3ccc4c(c3)CCCO4)n2)ccc1Cl [Compound 2, N-[[2-chloro-5-[1-(3,4-dihydro-2H-1-benzopyran-6-yl)-1H-pyrazol-3-yl]-phenyl]methyl]acetamide] | 88 | 0 | –
O=CNCc1cc(-c2ccn(-c3ccc4c(c3)CCCO4)n2)ccc1Cl [Compound 3, N-[[2-chloro-5-[1-(3,4-dihydro-2H-1-benzopyran-6-yl)-1H-pyrazol-3-yl]-phenyl]methyl]formamide] | 0 | 0 | –
CNC(=O)NCc1cc(-c2ccn(-c3ccc4c(c3)CCCO4)n2)ccc1Cl [Compound 4, N-[[2-chloro-5-[1-(3,4-dihydro-2H-1-benzopyran-6-yl)-1H-pyrazol-3-yl]-phenyl]methyl]-N′-methylurea] | 53 | 0 | –
COC(=O)NCc1cc(-n2ccc(-c3ccc4c(c3)CCCO4)n2)ccc1Cl [Compound 5, methyl N-[[2-chloro-5-[3-(3,4-dihydro-2H-1-benzopyran-6-yl)-1H-pyrazol-1-yl]phenyl]methyl]carbamate] | 100 | 98 | –
COC(=O)NCc1cc(-n2ccc(-c3ccc4c(c3)OCO4)n2)ccc1Cl [Compound 6, methyl N-[[5-[3-(1,3-benzodioxol-5-yl)-1H-pyrazol-1-yl]-2-chlorophenyl]-methyl]carbamate] | 100 | 91 | –
COC(=O)NCc1cc(-n2ccc(-c3ccc4c(c3)OCCO4)n2)ccc1Cl [Compound 7, methyl N-[[2-chloro-5-[3-(2,3-dihydro-1,4-benzodioxin-6-yl)-1H-pyrazol-1-yl]-phenyl]methyl]carbamate] | 100 | 98 | –
CC(=O)NCc1cc(-n2ccc(-c3ccc4c(c3)CCCO4)n2)ccc1Cl [Compound 8, N-[[2-chloro-5-[3-(3,4-dihydro-2H-1-benzopyran-6-yl)-1H-pyrazol-1-yl]phenyl]methyl]acetamide] | 26 | 73 | –
CNC(=O)NCc1cc(-n2ccc(-c3ccc4c(c3)CCCO4)n2)ccc1Cl [Compound 9, N-[[2-chloro-5-[3-(3,4-dihydro-2H-1-benzopyran-6-yl)-1H-pyrazol-1-yl]phenyl]methyl]-N′-methylurea] | 8 | 0 | –
COC(=O)NCc1cc(-n2ccc(-c3ccc4c(c3)CCCO4)n2)ccc1F [Compound 11, methyl N-[[5-[3-(3,4-dihydro-2H-1-benzopyran-6-yl)-1H-pyrazol-1-yl]-2-fluorophenyl]methyl]carbamate] | 100 | 0 | 140 to 144
COC(=O)NCc1cc(-c2ccn(-c3ccc4c(c3)CCCO4)n2)ccc1F [Compound 12, methyl N-[[5-[1-(3,4-dihydro-2H-1-benzopyran-6-yl)-1H-pyrazol-3-yl]-2-fluorophenyl]methyl]carbamate] | 100 | 0 | 134 to 138
COC(=O)NCc1cc(-c2ccn(-c3ccc4c(c3)CCCO4)n2)ccc1C [Compound 20, methyl N-[[5-[1-(3,4-dihydro-2H-1-benzopyran-6-yl)-1H-pyrazol-3-yl]-2-methylphenyl]methyl]carbamate] | 100 | 95 | 161 to 162
COC(=O)NCc1cc(-c2ccn(-c3ccc4c(c3)C=C(C(=O)OC)CO4)n2)ccc1Cl [Compound 23, methyl 6-[3-[4-chloro-3-[[(methoxycarbonyl)amino]methyl]phenyl]-1H-pyrazol-1-yl]-2H-1-benzopyran-3-carboxylate] | 0 | 0 | 185 to 187
COC(=O)NCc1cc(-c2ccn(-c3ccc4c(c3)C=C(C(=O)O)CO4)n2)ccc1Cl [Compound 24, 6-[3-[4-chloro-3-[[(methoxycarbonyl)amino]methyl]phenyl]-1H-pyrazol-1-yl]-2H-1-benzopyran-3-carboxylic acid] | 0 | 0 | 245 to 247
COC(=O)NCc1cc(-n2ccc(-c3ccc4c(c3)CCCO4)n2)ccc1C [Compound 25, methyl N-[[5-[3-(3,4-dihydro-2H-1-benzopyran-6-yl)-1H-pyrazol-1-yl]-2-methylphenyl]methyl]carbamate] | 100 | 0 | 152 to 154
COC(=O)NCc1cc(-c2ccn(-c3ccc4c(c3)CC3(CO4)OCCO3)n2)ccc1Cl [Compound 28, methyl N-[[2-chloro-5-(1-spiro[2H-1-benzopyran-3(4H), 2′-[1,3]dioxolan]-6-yl-1H-pyrazol-3-yl)phenyl]methyl]carbamate] | 100 | 0 | 70 to 73
COC(=O)NCc1cc(-c2ccn(-c3ccc4c(c3)CC(=O)CO4)n2)ccc1Cl [Compound 29, methyl N-[[2-chloro-5-[1-(3,4-dihydro-3-oxo-2H-1-benzopyran-6-yl)-1H-pyrazol-3-yl]phenyl]methyl]carbamate] | 0 | 0 | 104 to 106
COC(=O)NCc1cc(-c2ccn(-c3ccc4c(c3)CC(O)CO4)n2)ccc1Cl (stereo not shown) [Compound 30, methyl N-[[2-chloro-5-[1-(3,4-dihydro-3-hydroxy-2H-1-benzopyran-6-yl)-1H-pyrazol-3-yl]phenyl]methyl]carbamate] | 9 | 0 | 136 to 138
